Test results published in patent US7393856B2, “Anti-viral uses of borinic acid complexes” (Anacor Pharmaceuticals, Inc., priority 2004, dated 2008).

What was measured:
[1] = HepG2 2.15 anti-viral evaluation assay (in vitro anti-HBV activity); assay type: cell-based, HBV aywl strain; details: human, HepG2 2.2.15 cells (produce HBV aywl strain); HepG2 2.2.15 cells; positive control; read-out: Anti-HBV TC50
Procedure: (§1) HepG2 2.2.15 cells, which produce HBV aywl strain, were plated in 96-well collagen coated microtiter plates at a density of 2.5×10^4/well with DMEM medium supplemented with 2% fetal bovine serum. One day following plating of cells, the wells were washed and the medium was replaced with complete medium containing the test compound diluted in the medium in a half-log series.
(§2) The medium was replaced once with the fresh medium containing the freshly diluted compound three days post the initial addition of the lamivudine, a positive control compound. Cell viability was determined using CellTiter 96® Reagent (Promega, Madison, Wis.) according to the manufacturer's protocol, using a Vmax plate reader (Molecular Devices, Sunnyvale, Calif.). The mixture is metabolized by the mitochondrial enzymes of metabolically active cells to a soluble formazan product, allowing the rapid quantitative analysis of cell numbers. The media was removed and replaced with 100 μL of fresh media and 10 μL of Cell Titer 96. […] Percent cell viability of compound treated wells compared to no compound controls was calculated using an in-house computer program which graphs the percent reduction in viral cytopathic effects and the cell numbers at each drug concentration relative to control values.

HBV = test: as above; assay type: cell-based, HBV aywl strain
Procedure: as §1, §2

[2] = In vitro anti-viral activity for HSV-1; assay type: cell-based; details: HSV-1 assay; toxic concentration that kills 50% of cells; read-out: Anti-HSV-1 Activity TC50
HSV-1 = test: In vitro anti-viral activity for HSV-1; assay type: cell-based; details: Human alphaherpesvirus 1
HSV-2 = test: In vitro anti-viral activity for HSV-2; assay type: cell-based; details: Human alphaherpesvirus 2
[3] = In vitro anti-viral activity for HSV-2; assay type: cell-based; details: HSV-2 assay; toxic concentration that kills 50% of cells; read-out: Anti-HSV-2 Activity TC50
[4] = In vitro anti-viral activity for HIV-2; assay type: cell-based; details: HIV-2 assay; toxic concentration that kills 50% of cells; read-out: Anti-HIV-2 Activity TC50
HIV-2 = test: In vitro anti-viral activity for HIV-2; assay type: cell-based; details: Human immunodeficiency virus 2
HIV-1 = test: In vitro anti-viral activity for HIV-1; assay type: cell-based; details: Human immunodeficiency virus 1
[5] = In vitro anti-viral activity for HIV-1; assay type: cell-based; details: HIV-1 assay; toxic concentration that kills 50% of cells; read-out: Anti-HIV-1 Activity TC50

Row | Structure (SMILES) | CC50 [1] | Anti-viral Selectivity Index (HBV; HBV, TC50/IC50) | IC50 (HBV; Hepatitis B virus, HepG2 2.2.15 cells, positive control) | CC50 [2] | IC50 (HSV-1) | IC50 (HSV-2) | CC50 [3] | CC50 [4] | IC50 (HIV-2) | IC50 (HIV-1) | CC50 [5]
1 | Nc1ccn([C@@H]2CS[C@H](CO)O2)c(=O)n1 [Lamivudine] | > 1 µM | >1075 | 0.0093 µM |  |  |  |  |  |  |  | 
2 | Nc1nc2c(ncn2COCCO)c(=O)[nH]1 [Acyclovir, reference compound] |  |  |  | > 100 µM | 18 µM | 7.61 µM | > 100 µM |  |  |  | 
3 | Fc1ccc(B(Oc2cccc3cccnc23)c2ccc(Cl)cc2)cc1 [Compound 15, (4-Fluorophenyl)(4-chlorophenyl)borinic acid quinolin-8-yl ester] |  |  |  | > 32 µM | 9.68 µM | > 50 µM | 32.9 µM | 0.53 µM | 0.04 µM | 0.17 µM | 2.5 µM
